In patent publication US20120288554A1, “CANFOSFAMIDE MONOTHERAPY FOR TREATING MULTIPLE MYELOMA” (Telik, Inc., priority 2011, published 2012):
Counter-ions that a name gives are not always drawn. Like-named read-outs stand apart in the source and are kept apart here.

Assays:
[1] = test system: multiple myeloma; settings: cited from earlier work
[2] = test system: refractory or relapsed multiple myeloma
Description: This example is a single arm, open label, Phase 2 clinical test that tests the safety and efficacy of canfosfamide monotherapy for the treatment of refractory or relapsed multiple myeloma. Refractory or relapsed multiple myeloma patients were administered canfosfamide hydrochloride in an amount of 1000 mg/m^2, intravenously (IV), over 30 minutes, once every 2 weeks (a cycle of therapy). Response was assessed after every 3 cycles of therapy.

## O=C1CCC(N2C(=O)c3ccccc3C2=O)C(=O)N1 (stereo not shown) [Thalidomide, thalidomide]
[1]; thalidomide alone, relapsed/refractory multiple myeloma patients
  Partial remission rate: about 30 % of patients

## N[C@@H](CCC(=O)N[C@@H](CS(=O)(=O)CCOP(=O)(N(CCCl)CCCl)N(CCCl)CCCl)C(=O)N[C@@H](C(=O)O)c1ccccc1)C(=O)O [canfosfamide hydrochloride]
[2]; Patient No. 1, after cycle #3
  IFE (with 24 hour UPEP): only IFE positive.
[2]; Patient No. 1, after cycle #3, baseline 0.19 mg/dL
  Lambda FLC: Lambda FLC: 0.23 mg/dL
[2]; Patient No. 1, after cycle #3, baseline 3.94 mg/dL
  Kappa FLC (monoclonal free light chains): Kappa FLC: 1.66 mg/dL
[2]; Patient No. 1, after cycle #3, baseline 0.4 grams
  24 hour UPEP (urine protein electrophoresis): 24 hour UPEP: 0.2 grams with
[2]; Patient No. 1, after cycle #3, baseline 20.74
  FLC Ratio (kappa to lambda): FLC Ratio: 7.22
[2]; Patient No. 1, after cycle #3 of monotherapy, 1000 mg/m^2 IV once every 2 weeks, baseline 1.3 g/dL
  SPEP M-spike (serum protein electrophoresis monoclonal protein level): SPEP M-spike: 1.0 g/dL
[2]; Patient No. 1, after cycle #6
  FLC Ratio: FLC Ratio: 2.32
  IFE: albumin and IFE: negative.
  Kappa FLC: Kappa FLC: 1.44 mg/dL
  Lambda FLC: Lambda FLC: 0.62 mg/dL
  Overall disease response: “partial response.”
[2]; Patient No. 1, after cycle #6, baseline 75%
  Bone Marrow Biopsy plasma cells: Bone Marrow Biopsy: 20%
[2]; Patient No. 1, after cycle #6, with albumin
  24 hour UPEP: 24 hour UPEP: 0.5 grams with
[2]; Patient No. 1, after cycle #6 of monotherapy, baseline 1.3 g/dL
  SPEP M-spike: SPEP M-spike: 0.18 g/dL
[2]; Patient No. 2, after cycle #3, baseline 282 mg/dL
  Lambda FLC: Lambda FLC: 218 mg/dL
[2]; Patient No. 2, after cycle #3, baseline 7.9 grams
  24 hour UPEP: 24 hour UPEP: 5.8 grams.
[2]; Patient No. 2, after cycle #3, baseline <0.11 mg/dL
  Kappa FLC: Kappa FLC: <0.11 mg/dL
[2]; Patient No. 2, after cycle #3 of monotherapy, baseline 5.37 g/dL
  SPEP M-spike: SPEP M-spike: 3.18 g/dL
[2]; Patient no. 1, 6 weeks and 12 weeks after initiating treatment
  Response to monotherapy on follow-up: continued to respond
[2]; after the first cycle of administration
  Tumor lysis syndrome: observed
[2]; multiple myeloma refractory to combination chemotherapy and/or radiation or stem cell transplantation
  Efficacy as monotherapy: effective as monotherapy
[2]; of the three multiple myeloma patients treated
  Patients demonstrating positive treatment outcomes: two

## Nc1cccc2c1CN(C1CCC(=O)NC1=O)C2=O (stereo not shown) [Lenalidomide, lenalidomide]
[1]; nearly all lenalidomide trials
  Venous thromboembolic (VTE) adverse effects: increased risk of VTE

## CC(C)C[C@H](NC(=O)[C@H](Cc1ccccc1)NC(=O)c1cnccn1)B(O)O [Bortezomib, bortezomib]
[1]; patients with multiple myeloma
  Peripheral neuropathy: dose-limiting toxicity
